Measurements: patent publication US20120165310A1, “ETHER DERIVATIVES OF BICYCLIC HETEROARYLS” (NOVARTIS AG, priority 2009, published 2012)

Biological target: T1, IGF-1R (Homo sapiens, UniProt P08069)
T1 construct: expressed in transfected cells; host or cells: Hek293 (Hek293-IGF1R)
Experiment: Cellular IGF-1R assay: capture ELISA (MSD) of receptor phosphorylation in Hek293 cells
Format: cell-based
Conditions: Hek293-IGF1R cells, 1 h pre-incubation, 10 min IGF stimulation, pIGF1R capture ELISA
Method: (§1) In this assay the activity of the compounds of the invention against Insulin-like growth factor I (IGF-I) induced autophosphorylation of the IGF-IR was determined. The assay was conducted as follows: Compound-mediated inhibition of IGF1R and INSR phosphorylation in Hek293 cells transduced with the corresponding receptors was assessed in a capture ELISA format using the MSD (Meso Scale Discovery) platform. Briefly, 30,000 cells washed and diluted in starvation medium (DMEM high glucose supplemented with 0.1% BSA) were seeded in 90 μL per well into 96-well plates pre-coated with poly-D-lysine (0.1 mg/mL in PBS/O). After 24 h incubation at 37° C. and 5% CO2, dose-response effects were determined with 3-fold serial compound dilutions, starting at 10 μM. The final vehicle concentration is 0.1% DMSO in all wells. Following pre-incubation with compounds for 1 h, receptor phosphorylation was triggered by a 10 min exposure to 1.0 ng/μL IGF for Hek293-IGF1R cells, and 5.0 ng/μL insulin for Hek293-InsR cells. Cell lysis was achieved by addition of 80 μL MSD lysis buffer per aspirated well, incubation on ice for 20 min, and a freeze-thaw cycle. Target phosphorylation was then assessed by transferring volumes corresponding to approx. 6 μg Hek293-IGF1R or 0.6 μg Hek293-InsR lysates to MSD assay plates pre-coated with total-IGF1R or total-InsR Abs, respectively. […] Immune complexes were detected by a SULFO-Tag™-coupled anti-rabbit IgG antibody in the presence of 150 μL MSD read-buffer. Light emission at 620 nm triggered by application of electric current was recorded on a MSD Sectorlmager 6000. Acquired raw data (mean Ru-ECL units) were processed in an Excel analysis template. The plate blank (MSD lysis buffer) was subtracted from all data points. The effect of a particular test compound concentration on receptor phosphorylation was expressed relative to the window defined by ligand-stimulated vs unstimulated control cells (set as 100%). IC50 values [nM] were determined using 4-parametric curve-fitting (XLfit software, V4.3.2).
as §1, with “Compound-mediated” for “In this assay the activity of the compounds of the invention against Insulin-like growth factor I (IGF-I) induced autophosphorylation of the IGF-IR was determined. The assay was conducted as follows: Compound-mediated”, “cells trans-duced” for “cells transduced”, “receptors were” for “receptors was”, “concentration was” for “concentration is”, “for Hek293-IGF1 R” for “for Hek293-IGF1R”, “with total-IGF1 R” for “with total-IGF1R”

T1 sequence (P08069 31-1367): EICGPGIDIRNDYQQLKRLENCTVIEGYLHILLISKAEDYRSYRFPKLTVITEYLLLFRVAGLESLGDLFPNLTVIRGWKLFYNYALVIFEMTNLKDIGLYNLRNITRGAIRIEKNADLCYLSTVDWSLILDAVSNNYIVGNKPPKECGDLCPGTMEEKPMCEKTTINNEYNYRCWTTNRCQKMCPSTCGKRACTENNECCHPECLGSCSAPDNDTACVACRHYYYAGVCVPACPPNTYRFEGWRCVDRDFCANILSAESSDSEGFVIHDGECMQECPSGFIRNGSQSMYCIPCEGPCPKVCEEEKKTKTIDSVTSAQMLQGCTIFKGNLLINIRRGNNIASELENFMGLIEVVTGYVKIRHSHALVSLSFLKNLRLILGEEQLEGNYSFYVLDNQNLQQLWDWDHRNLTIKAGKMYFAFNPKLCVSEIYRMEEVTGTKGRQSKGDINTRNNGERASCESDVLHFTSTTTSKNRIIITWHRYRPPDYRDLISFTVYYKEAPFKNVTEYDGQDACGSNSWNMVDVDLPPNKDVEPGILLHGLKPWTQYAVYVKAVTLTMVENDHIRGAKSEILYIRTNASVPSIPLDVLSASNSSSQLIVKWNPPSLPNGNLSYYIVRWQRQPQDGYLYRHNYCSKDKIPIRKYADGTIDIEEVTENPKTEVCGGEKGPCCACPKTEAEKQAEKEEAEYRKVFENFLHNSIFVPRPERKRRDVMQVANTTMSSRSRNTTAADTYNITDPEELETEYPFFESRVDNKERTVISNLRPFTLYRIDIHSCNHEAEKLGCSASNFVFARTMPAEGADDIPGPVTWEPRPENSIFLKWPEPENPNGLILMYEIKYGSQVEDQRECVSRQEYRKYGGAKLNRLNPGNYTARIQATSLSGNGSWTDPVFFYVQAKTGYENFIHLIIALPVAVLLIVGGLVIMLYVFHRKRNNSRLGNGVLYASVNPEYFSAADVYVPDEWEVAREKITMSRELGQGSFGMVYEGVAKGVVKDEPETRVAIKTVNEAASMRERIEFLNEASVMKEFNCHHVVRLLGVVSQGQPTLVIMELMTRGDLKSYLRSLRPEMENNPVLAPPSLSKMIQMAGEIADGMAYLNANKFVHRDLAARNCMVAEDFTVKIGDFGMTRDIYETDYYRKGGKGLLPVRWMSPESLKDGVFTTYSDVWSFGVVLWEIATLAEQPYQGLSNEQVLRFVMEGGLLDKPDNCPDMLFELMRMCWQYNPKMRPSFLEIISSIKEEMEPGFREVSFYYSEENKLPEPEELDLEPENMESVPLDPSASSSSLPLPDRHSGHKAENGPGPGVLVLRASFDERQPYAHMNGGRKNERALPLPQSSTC

Structure (SMILES)	IC50
CSC[C@H]1C[C@@H](n2cc(-c3cccc(OCC4CCCCO4)c3)c3c(N)ncnc32)C1 (relative stereo) [Example 85, 7-(cis-3-methylsulfanylmethyl-cyclobutyl)-5-[3-(tetrahydro-pyran-2-ylmethoxy)-phenyl]-7H-pyrrolo[2,3-d]pyrimidin-4-ylamine]	557 nM
Nc1ncnc2c1c(-c1cccc(OCC3CCCO3)c1)cn2[C@H]1C[C@H](CN2CCS(=O)(=O)CC2)C1 (relative stereo) [Example 89, 7-[trans-3-(1,1-Dioxothiomorpholin-4-ylmethyl)-cyclobutyl]-5-[3-(tetrahydro-furan-2-ylmethoxy)-phenyl]-7H-pyrrolo[2,3-d]pyrimidin-4-ylamine]	316 nM
NC(=O)[C@@H]1[C@H](O)CCN1C[C@H]1C[C@H](n2cc(-c3cccc(OCC4CCCO4)c3)c3c(N)ncnc32)C1 (relative stereo) [Example 91, (2S,3R)-1(trans-((1R,3S)-3-(4-amino-5-(3-(tetrahydrofuran-2-yl)methoxy)phenyl)-7H-pyrrolo[2,3-d]pyrimidin-7-yl)cyclobutyl)methyl-3-hydroxylpyrrolidine-2-carboxamide]	108 nM
CSC[C@H]1C[C@@H](n2cc(-c3cccc(OC[C@H]4CCCCO4)c3)c3c(N)ncnc32)C1 (relative stereo) [Example 152, 7-(cis-3-methylsuphanylmethyl-cyclobutyl)-5-{3-[(R)-1-(tetrahydro-pyran-2-yl)methoxy]-phenyl}-7H-pyrrolo[2,3-d]pyrimidin-4-ylamine]	281 nM
Cc1nccn1C[C@H]1C[C@@H](n2cc(-c3cccc(OCC4CCCCO4)c3)c3c(N)ncnc32)C1 (relative stereo) [Example 154, 7-[cis-3-(2-methyl-imidazol-1-ylmethyl)-cyclobutyl]-5-[3-(tetrahydro-pyran-2-ylmethoxy)-phenyl]-7H-pyrrolo[2,3-d]pyrimidin-4-ylamine]	71 nM
CC12CCC(COc3cccc(-c4cn([C@H]5C[C@@H](CN6CCS(=O)(=O)CC6)C5)c5ncnc(N)c45)c3)(CC1)O2 (relative stereo) [Example 155, 7-[cis-3-(1,1-dioxo-1-thiomorpholin-4-ylmethyl)-cyclobutyl]-5-[3-(4-methyl-7-oxa-bicyclo[2.2.1]hept-1-ylmethoxy)-phenyl]-7H-pyrrolo[2,3-d]pyrimidin-4-ylamine]	24 to 54 nM
NC[C@H]1C[C@@H](n2cc(-c3cccc(OCC45CCC(CC4)O5)c3)c3c(N)ncnc32)C1 (relative stereo) [Example 160, 7-[cis-3-aminomethyl-cyclobutyl]-5-[3-(7-oxa-bicyclo[2.2.1]hept-1-ylmethoxy)-phenyl]-7H-pyrrolo[2,3-d]pyrimidin-4-ylamine]	24 nM
CS(=O)(=O)N1CCN([C@H]2C[C@@H](n3cc(-c4cccc(OCC56CCC(CC5)O6)c4)c4c(N)ncnc43)C2)CC1 (relative stereo) [Example 171, 7-[cis-3-(4-methanesulfonyl-piperazin-1-yl)-cyclobutyl]-5-[3-(7-oxa-bicyclo[2.2.1]hept-1-ylmethoxy)-phenyl]-7H-pyrrolo[2,3-d]pyrimidin-4-ylamine]	33 nM
CC(=O)N1CC2CC1CN2[C@H]1C[C@@H](n2cc(-c3cccc(OCC45CCC(CC4)O5)c3)c3c(N)ncnc32)C1 (relative stereo) [Example 173, 1-[5-(cis-3-{4-amino-5-[3-(7-oxa-bicyclo[2.2.1]hept-1-ylmethoxy)-phenyl]-pyrrolo[2,3-d]pyrimidin-7-yl}-cyclobutyl)-2,5-diaza-bicyclo[2.2.1]hept-2-yl]-ethanone]	182 nM
Nc1ncnc2c1c(-c1cccc(OCC34CCC(CC3)O4)c1)cn2[C@H]1CC[C@H](N)CC1 (relative stereo) [Example 182, 7-(trans-4-Amino-cyclohexyl)-5-[3-(7-oxa-bicyclo[2.2.1]hept-1-ylmethoxy)-phenyl]-7H-pyrrolo[2,3-d]pyrimidin-4-ylamine]	211 nM
CN(C)[C@H]1CC[C@H](n2cc(-c3cccc(OCC45CCC(CC4)O5)c3)c3c(N)ncnc32)CC1 (relative stereo) [Example 183, 7-(trans-4-Dimethylamino-cyclohexyl)-5-[3-(7-oxa-bicyclo[2.2.1]hept-1-ylmethoxy)-phenyl]-7H-pyrrolo[2,3-d]pyrimidin-4-ylamine]	88 nM
Nc1ncnc2c1c(-c1cccc(OCC34CCC(CC3)O4)c1)cn2[C@H]1C[C@@H](CN2CCC(O)CC2)C1 (relative stereo) [Example 184, 1-(cis-3-{4-Amino-5-[3-(7-oxa-bicyclo[2.2.1]hept-1-ylmethoxy)-phenyl]-pyrrolo[2,3-d]pyrimidin-7-yl}-cyclobutylmethyl)-piperidin-4-ol]	9 nM
Nc1ncnc2c1c(-c1cccc(OCC34CCC(CC3)O4)c1)cn2[C@H]1C[C@@H](N2CC(O)C2)C1 (relative stereo) [Example 191, 1-(cis-3-{4-Amino-5-[3-(7-oxa-bicyclo[2.2.1]hept-1-ylmethoxy)-phenyl]-pyrrolo[2,3-d]pyrimidin-7-yl}-cyclobutyl)-azetidin-3-ol]	138 nM

Second part, the compound after the results:

IC50	Structure (SMILES)
234 nM	Nc1ncnc2c1c(-c1cccc(OCC3CCCO3)c1)cn2[C@H]1C[C@@H](CN2CCS(=O)(=O)CC2)C1 (relative stereo) [Example 88, 7-[cis-3-(1,1-Dioxothiomorpholin-4-ylmethyl)-cyclobutyl]-5-[3-(tetrahydro-furan-2-ylmethoxy)-phenyl]-7H-pyrrolo[2,3-d]pyrimidin-4-ylamine]
559 nM	Nc1ncnc2c1c(-c1cccc(OCC3CCCCO3)c1)cn2[C@H]1C[C@@H](CN2CCCC2C(=O)O)C1 (relative stereo) [Example 92, 1-(cis-3-{4-amino-5-[3-(tetrahydro-pyran-2-ylmethoxy)-phenyl]-pyrrolo[2,3-d]pyrimidin-7-yl}-cyclobutylmethyl)-pyrrolidine-2-carboxylic acid]
106 to 448 nM	Cc1nccn1C[C@H]1C[C@@H](n2cc(-c3cccc(OCC45CCC(C)(CC4)O5)c3)c3c(N)ncnc32)C1 (relative stereo) [Example 157, 7-[cis-3-(2-methyl-imidazol-1-ylmethyl)-cyclobutyl]-5-[3-(4-methyl-7-oxa-bicyclo[2.2.1]hept-1-ylmethoxy)-phenyl]-7H-pyrrolo[2,3-d]pyrimidin-4-ylamine]
21 nM	Nc1ncnc2c1c(-c1cccc(OCC34CCC(CC3)O4)c1)cn2[C@H]1C[C@@H](N2CCN(CCO)CC2)C1 (relative stereo) [Example 172, 2-[4-(cis-3-{4-amino-5-[3-(7-oxa-bicyclo[2.2.1]hept-1-ylmethoxy)-phenyl]-pyrrolo[2,3-d]pyrimidin-7-yl}-cyclobutyl)-piperazin-1-yl]-ethanol]
303 nM	Nc1ncnc2c1c(-c1cccc(OCC34CCC(CC3)O4)c1)cn2[C@H]1C[C@@H](N2CC3CC2CN3CCO)C1 (relative stereo) [Example 174, 2-[5-(cis-3-{4-amino-5-[3-(7-oxa-bicyclo[2.2.1]hept-1-ylmethoxy)-phenyl]-pyrrolo[2,3-d]pyrimidin-7-yl}cyclobutyl)-2,5-diaza-bicyclo[2.2.1]hept-2-yl]-ethanol]
112 nM	CC(=O)NN[C@H]1C[C@@H](n2cc(-c3cccc(OCC45CCC(CC4)O5)c3)c3c(N)ncnc32)C1 (relative stereo) [Example 193, Acetic acid N′-(cis-3-{4-amino-5-[3-(7-oxa-bicyclo[2.2.1]hept-1-ylmethoxy)-phenyl]-pyrrolo[2,3-d]pyrimidin-7-yl}-cyclobutyl)-hydrazide]
